From US12037324B2, “Biarylmethyl heterocycles” (Université de Montréal, priority 2016, dated 2024) come the findings set out here.

Common to all, as to assay type: cell-based
The target in one test is T1, AGTR1 (Homo sapiens, UniProt P30556).
T1 construct: host or cells: Pathunter CHO-K1 AGTR1 β-arrestin cell line (CHO-K1)
T1 sequence (P30556 1-359): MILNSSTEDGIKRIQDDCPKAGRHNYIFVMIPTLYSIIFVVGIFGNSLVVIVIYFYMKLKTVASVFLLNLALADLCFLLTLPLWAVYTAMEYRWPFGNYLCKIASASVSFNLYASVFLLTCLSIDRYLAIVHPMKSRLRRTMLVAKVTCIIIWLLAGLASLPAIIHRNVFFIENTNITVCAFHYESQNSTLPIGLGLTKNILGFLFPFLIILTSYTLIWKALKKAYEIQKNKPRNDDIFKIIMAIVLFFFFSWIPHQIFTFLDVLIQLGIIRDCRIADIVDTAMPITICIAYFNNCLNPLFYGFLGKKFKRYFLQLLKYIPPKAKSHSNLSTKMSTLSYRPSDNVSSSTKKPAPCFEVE
Kind of test: DiscoveRx β-arrestin2 recruitment assay (enzyme complementation, Pathunter CHO-K1 AGTR1 β-arrestin cell line). To be noted: DiscoveRx β-arrestin2 recruitment. The gist of the method: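 CHO-K1 cells expressing AGTR1 with β-arrestin2 enzyme-complementation reporter, plated 14-16 h ahead in 1% serum medium, then exposed to compounds for 90 min at 37° C. Chemiluminescence read after 1 h detection. EC50 (agonist) or IC50 (antagonist) from 4-parameter logistic fit; activity as percentage of All maximal effect.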

In test [1] the target is T2, hAT1R (Homo sapiens, UniProt P30556).
T2 sequence (P30556 1-359): T1 sequence (P30556 1-359)
The test is described as follows: BRET β-arrestin2 biosensor assay, higher receptor expression (hAT1R 5 ng/well), HEK293 cells. As to conditions: for EC50: High AT1R Expression. (In general: BRET reads energy transfer from a luciferase to a nearby fluorophore.)

The target in test [2] is T2, hAT1R. Kind of test: BRET Gq biosensor assay, agonist response, HEK293 cells. As to conditions: section of the 42nd table directly before the BRET P63 section. In outline: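 HEK293 cells co-transfected with signal-peptide-optimized hAT1R plus Gαq-Rluc, Gβ1 and GFP-Gγ1, assayed 48 h later in Tyrode's buffer pH 7.4. Coelenterazine (2 μM final) added, then compound; BRET2 (515/410 nm) read after 5 min at room temperature. EC50 by 4-parameter fit, normalized to unstimulated (0%) and maximal AngII (100%).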

Turning to `CCCCC(=O)N(Cc1ccc(-c2cc(Oc3ccccc3)ccc2-c2nn[nH]n2)cc1)C1(C(=O)O)CCCCC1` [Example 285, 1-(N-((5′-Phenoxy-2′-(2H-tetrazol-5-yl)-[1,1′-biphenyl]-4-yl)methyl)pentanamido)cyclohexanecarboxylic acid], the half-maximal effective concentration (EC50) at AGTR1 came out at 66.4 nM; on hAT1R [1], 57.3 nM; on hAT1R [2] it was 1540 nM. Moreover, on AGTR1 (maximal response), the “DiscoveRx β-arrestin2 Ymax (%)” value was determined as 24.8%. The “BRET β-Arrestin2 High AT1R Expression Ymax (%)” value at hAT1R [1] stood at 33.4%.

On to `CCCCc1nc(Cl)c(C(=O)N(C)C)n1Cc1ccc(-c2cc(-c3ccccc3)ccc2-c2nn[nH]n2)cc1` [Example 381, 1-((6′-(2H-tetrazol-5-yl)-[1,1′:3′,1″-terphenyl]-4-yl)methyl)-2-butyl-4-chloro-N,N-dimethyl-1H-imidazole-5-carboxamide], for which the EC50 amounted to 344 nM at AGTR1, 828 nM at hAT1R [1] and 2110 nM on hAT1R [2]. On AGTR1 (maximal response), the “DiscoveRx β-arrestin2 Ymax (%)” value is given as 37.4%. Moreover, the “BRET β-Arrestin2 High AT1R Expression Ymax (%)” value at hAT1R [1] turned out to be 73.9%.

Consider `CCCCC(=O)N(Cc1ccc(-c2cc(-c3cccnc3OC)ccc2-c2nn[nH]n2)cc1)[C@H](C(=O)O)C(C)C` [Example 439], for which, at AGTR1, the “DiscoveRx β-arrestin2 Ymax (%)” value stood at 26.4% and it took 108 nM to reach a half-maximal effect (EC50). Besides, on hAT1R [1], the “BRET β-Arrestin2 High AT1R Expression Ymax (%)” value is given as 35.8% and a half-maximal effect (EC50) was put at 117 nM. At hAT1R [2], the half-maximal effective concentration (EC50) was determined as 386 nM.

On to `CCCCc1ncc(C(=O)NCC(C)(C)C)n1Cc1ccc(-c2cc(-c3ccccc3)ccc2-c2nn[nH]n2)cc1` [Example 373], for which the results for the EC50 on AGTR1, on hAT1R [1] and on hAT1R [2] were 14.2 nM, 38.5 nM and 734 nM, respectively. On AGTR1 (maximal response), the “DiscoveRx β-arrestin2 Ymax (%)” value is recorded as 29.5%. Besides, the “BRET β-Arrestin2 High AT1R Expression Ymax (%)” value at hAT1R [1] is 71.4%.

Turning to `CCCCC(=O)N(Cc1ccc(-c2cc(Oc3cccnc3)ccc2-c2nn[nH]n2)cc1)[C@H](C(=O)O)C(C)C` [Example 436], the “DiscoveRx β-arrestin2 Ymax (%)” value on AGTR1 is reported as 31.2%. The EC50 on AGTR1 is 993 nM; on hAT1R [1] it was 13600 nM; at hAT1R [2], more than 100000 nM. Further, the “BRET β-Arrestin2 High AT1R Expression Ymax (%)” value on hAT1R [1] is reported as 58.0%.

In the case of `CCCCC(=O)N(Cc1ccc(-c2cc(-c3ccccc3)ccc2-c2nn[nH]n2)cn1)[C@H](C(=O)O)C(C)C` [Example 431], at AGTR1, the “DiscoveRx β-arrestin2 Ymax (%)” value came to 26.0% and a half-maximal response (EC50) required 194 nM. At hAT1R [1], the “BRET β-Arrestin2 High AT1R Expression Ymax (%)” value is reported as 92.7% and the EC50 was 1590 nM. Moreover, at hAT1R [2], the EC50 was 910 nM.

With `CCCCC(=O)N(Cc1ccc(-c2cc(-c3cnn(C)c3)ccc2-c2nn[nH]n2)cc1)C1(C(=O)O)CCCCC1` [Example 288, 1-(N-((5′-(1-Methyl-1H-pyrazol-4-yl)-2′-(2H-tetrazol-5-yl)-[1,1′-biphenyl]-4-yl)methyl)pentanamido)cyclohexanecarboxylic acid], the EC50 at AGTR1 is 186 nM; at hAT1R [1], 474 nM; at hAT1R [2], more than 100000 nM. For the same compound, the “DiscoveRx β-arrestin2 Ymax (%)” value at AGTR1 (maximal response) is 29.6%. On hAT1R [1], the “BRET β-Arrestin2 High AT1R Expression Ymax (%)” value stood at 69.2%.

Regarding `CCCCc1ncc(C(=O)NC2CC3(CCC3)C2)n1Cc1ccc(-c2cc(-c3ccccc3)ccc2-c2nn[nH]n2)cc1` [Example 351], the results for the EC50 on AGTR1, on hAT1R [1] and at hAT1R [2] were 18 nM, 38.9 nM and 81.1 nM, respectively. Moreover, at AGTR1 (maximal response), the “DiscoveRx β-arrestin2 Ymax (%)” value worked out at 45.4%. Besides, on hAT1R [1], the “BRET β-Arrestin2 High AT1R Expression Ymax (%)” value came to 89.6%.

`CCCCC(=O)N(Cc1ccc(-c2cc(-c3ccccc3)ccc2-c2nn[nH]n2)cc1)C(C)(C)C(=O)O` [Example 268, 2-(N-((6′-(2H-Tetrazol-5-yl)-[1,1′:3′,1″-terphenyl]-4-yl)methyl)pentanamido)-2-methylpropanoic acid]: the EC50 on AGTR1 was determined as 628 nM; on hAT1R [1], 1030 nM; at hAT1R [2], 1090 nM. Also, at AGTR1 (maximal response), the “DiscoveRx β-arrestin2 Ymax (%)” value was determined as 39.8%. In addition, the “BRET β-Arrestin2 High AT1R Expression Ymax (%)” value on hAT1R [1] worked out at 73.8%.

By EC50 is commonly meant the concentration that produces a half-maximal response.
